Assay results from US20040082510A1, “Pyk2 phosphorylation by her3 induces tumor invasion” (priority 2001, published 2004).

Experiments:
[1] = system: PYK2 tyrosine phosphorylation in SF767 gliomas; assay: PYK2 tyrosine phosphorylation in SF767 gliomas (immunoprecipitation, anti-phosphotyrosine western blot); type: cell-based, human; conditions: for HRG-induced tyrosine phosphorylation of PYK2: 5 μg/ml HRG 20 min, pretreatment with PP1 5 μM 30 min, AG825 10 μM 1 hour or Wortmannin 100 nM 30 min
Method: (§1) SF767 gliomas were pretreated with 5 μM PP1 for 30 minutes and stimulated either with 5 μg ml^−1 Heregulin (HRG, left panel) or 5 μM lonomycin (IONO, right panel) for 20 min and 5 min, respectively. b, PYK2 coprecipitation with HER3 depends on the HER2 kinase activity, and tyrosine phosphorylation of PYK2 is proportional to its binding to HER3. SF767 gliomas were pretreated with 10 μM AG825 for 1 hour and stimulated with 5 μg ml^−1 Heregulin for 20 min (HRG). Cell lysates were subjected to immunoprecipitation (IP) using polyclonal anti-PYK2 (α-PYK2) or monoclonal anti-HER3 (α-HER3) antibodies. Tyrosine phosphorylation level was analysed by western blotting (WB) with monoclonal anti-phosphotyrosine antibody (α-4G10) (a, upper panels, and b, upper panel). Equal loading of proteins was checked by reblotting with α-PYK2 and α-HER3 antibodies, respectively (a, lower panels, and b, middle and lower panels). PYK2 coprecipitating with HER3 was detected by probing the membrane with α-PYK2 antibody (b, middle panel, lanes 1-4). Unstimulated cells are indicated by NS.
SF763, SF767 or transfected HEK293 cells were either left untreated or were pretreated with PP1 (10 μM), AG825 (10 μM), Wortmannin (WT) (100 nM) and PD98059 (25 μM) for 30-60 min following stimulation with 5 μg/ml recombinant human HRG for 20 min or with 5 μM IONO for 5 min at 37° C. Upon HRG or IONO stimulation, the cells were lysed on ice in a lysis buffer (50 mM HEPES pH 7.5, containing 150 mM NaCl, 1 mM EDTA, 10% (v/v) glycerol, 1% (v/v) Triton X-100, 1 mM sodium fluoride, 1 mM phenylmethylsulfonyl fluoride, 1 mM sodium orthovanadate, 1 mM β-glycerolphosphate, […] aprotinin). Crude lysates were centrifuged at 12500 g for 20 min at 4° C. For immunoprecipitations, the appropriate antiserum and 30 μl of protein A-Sepharose (Pharmacia) was added to the cleared lysate and incubated for 3 h at 4° C. […]
(§2) Proteins were fractionated by SDS-PAGE and electrophoretically transferred to nitrocellulose filters. […] The substrate reaction was detected on Kodak X-Omat film. […]

[2] = system: SHC tyrosine phosphorylation in PC 12 cells; assay: SHC tyrosine phosphorylation in PC 12 cells; type: cell-based, rat; conditions: 10 μM AG825, HRG stimulation
Method: (§3) FIGS. 13, 14: PC 12 cells were left untreated or pretreated either with 10 μM AG825, 50 μM PD98059 or both and subsequently stimulated with HRG. Immunoprecipitations of HER2 (α-HER2) or of tyrosyl-phosphorylated proteins (α-PY) were probed with phosphotyrosine antibody (α-PY). […] Reprobing of the blot with HER2 antibody confirms equal loading of proteins. SHC is indicated by an arrow.

[3] = system: HER2 tyrosine phosphorylation in PC 12 cells; assay: HER2 tyrosine phosphorylation in PC 12 cells; type: cell-based, rat; conditions: 10 μM AG825, HRG stimulation
Method: as §3

[4] = system: PYK2 coprecipitating with HER3 in SF767 gliomas; assay: PYK2 coprecipitation with HER3 in SF767 gliomas; type: cell-based, human; conditions: AG825 10 μM 1 hour, with or without HRG
Method: as §1, with “NS. […]” for “NS.”
as §2

[5] = system: ERK-2 activity in SF767 gliomas; assay: MAP-kinase assay on ERK-2 immunocomplexes from SF767 gliomas; type: cell-based, human; conditions: AG825 10 μM 1 hour or WT 100 nM 30 min, 5 μg/ml HRG 20 min
Method: (§4) FIG. 5: PYK2 mediates mitogenicity upon HRG stimulation. a, b, SF767 gliomas were pretreated either with 10 μM AG825 for 1 hour or with 100 nM Wortmannin for 30 min (WT), and then stimulated with 5 μg ml^−1 Heregulin for 20 min (HRG). Tyrosine phosphorylation of SHC was elevated by HRG and attenuated by pretreatment with AG825, but not fully abrogated (a). The same holds also for ERK-2 activity, when cells were pretreated either with AG825 or with WT (b). Cell lysates were used for immunoprecipitation with polyclonal anti-SHC (α-SHC) (a), or polyclonal anti-Erk-2 (α-ERK-2) antibodies (b). α-SHC-immunocomplexes were blotted with a monoclonal anti-phosphotyrosine antibody (α-4G10) (a), whereas α-ERK-2 immunocomplexes were subjected to MAP-kinase assays (b). Phosphorylated MBP is indicated by an arrow. c, Tetracyclin-inducible pheochromocytoma PC12 cells, either stably expressing PYK2-KM (Tet−), or only endogenous PYK2 (Tet+), were pretreated either with 100 nm Wortmannin for 30 min (WT), or 10 μM AG825 for 1 hour prior to stimulation with 5 μg ml^−1 Heregulin for 20 min (HRG). Basal ERK-2 activity is independent of HER2 and Pl3-K, whereas the HRG-stimulated ERK-2 activity is dependent on HER2, Pl3-K and PYK2. Overexpression of PYK2-KM leads to a general attenuation of ERK-2 activity (compare Tet− with Tet+ bands). […]

[6] = system: Pl3-K activity in PC12 cells; assay: Pl3-K assay on anti-phosphotyrosine immunoprecipitates from tetracyclin-inducible PC12 cells; type: cell-based, rat; conditions: PC12 Tet-off; 5 μg/ml HRG 20 min; AG825 10 μM 1 hour or PYK2-KM expression (Tet−)
Method: FIG. 6: PYK2 enhances Pl3-K activity upon HRG stimulation. a, Tetracyclin-inducible pheochromocytoma […], either stably expressing PYK2-KM (Tet−) or only endogenous PYK2 (Tet+), were pretreated either with 100 nm Wortmannin for 30 min (WT), or 10 μM AG825 for 1 hour prior to stimulation with 5 μg ml^−1 Heregulin for 20 min (HRG). Lysates were subjected to α-4G10 immunoprecipitation and Pl3-K assays were performed (see Methods section). Pl3-K activity is strongly dependent on PYK2 upon HRG stimulation, and is diminished by AG825. MAP-kinase and Pl3-kinase assays were performed as described previously (49, 50).

[7] = system: ERK-2 activity in PC12 cells; assay: MAP-kinase assay on ERK-2 immunocomplexes from tetracyclin-inducible PC12 cells (Tet-off PYK2-KM); type: cell-based, rat; conditions: AG825 10 μM 1 hour, WT 100 nM 30 min or PYK2-KM expression (Tet−); for HRG-stimulated ERK-2 activity: 5 μg/ml HRG 20 min; for Basal ERK-2 activity: unstimulated
[8] = system: SHC tyrosine phosphorylation in SF767 gliomas; assay: SHC tyrosine phosphorylation in SF767 gliomas; type: cell-based, human; conditions: AG825 10 μM 1 hour, 5 μg/ml HRG 20 min
Method: as §4, with “PYK2.” for “PYK2. Overexpression of PYK2-KM leads to a general attenuation of ERK-2 activity (compare Tet− with Tet+ bands).”
as §2

SF767 gliomas = assay: Tumor invasion assay, SF767 gliomas; type: cell-based, human; conditions: HRG, 16 h, retroviral infection with PYK2-KM
Method: (§5) FIG. 7: PYK2-KM inhibits tumor invasion upon HRG stimulation. a, C6 gliomas were retrovirally infected with either a control vector pLXSN (mock), PYK2, dominant negative PYK2 mutant PYK2-KM, or pretreated with a MEK1 inhibitor PD98059 (25 μM) for 30 min, and tumor invasion assays were performed (see Methods section). b, Invasion is supressed to the same extent by PD98059 and by overexpression of PYK2-KM (p>0.95). c, SF767 gliomas were retrovirally infected with pLXSN or PYK2-KM. d, Tumor invasion is supressed by overexpresssion of PYK2-KM in SF767 (p<0.008), and also in SF763 cell line (p<0.005), as shown by using the same assay. Representative bright-field micrographs of cells that migrated through the 8 μm filters in 16 h are shown. […]
(§6) Amphotrophic virus titer, which was generated by transient transfection of retrovirus expression plasmids into the virus producer cell line PhoenixA (ATCC), was determined by infecting NIH-3T3 cells with serial dilutions of retrovirus-containing, cell-free PhoenixA supernatants and counting the number of G418-resistant colonies. […]
(§7) Tumor invasion assay was performed as describ d previously (31). […] Following 16 h of incubation, non-invading cells were removed with cotton swabs, whereas invading cells were fixed, stained with Crystal violet and counted under bright-field illumination using an Axiovert135 inverted microscope (Zeiss). […]

[9] = system: ERK-2 phosphorylation in C6 glioma cells; assay: Phosphorylated ERK-2 in whole cell lysates of C6 glioma cells; type: cell-based, rat; conditions: in parallel to the tumor invasion assay, PD98059 or PYK2-KM
Method: (§8) FIGS. 15, 16: Whole cell lysates (WCL) of C6 glioma cells were prepared in parallel to the tumor invasion assay and the content of phosphorylated ERK-2 was assessed by probing with a specific phospho-ERK2 antibody (upper panel). To confirm equal loading of proteins the blot was reprobed with a pan-ERK antibody. (16) The same experimental procedure was used as in (15) for SF767 cells. Phosphorylated ERK-2 is indicated by an arrow. Dominant-negative PYK2-KM abrogates ERK-2 activity to the same extent as MEK-1 inhibitor PD98059.
(§9) Proteins were fractionated by SDS-PAGE and electrophoretically transferred to nitrocellulose filters. For immunoblot analysis, nitrocellulose filters were first incubated with mouse monoclonal or rabbit polyclonal primary antibodies for 3 h at 4° C. Next, a HRP-coupled goat anti-mouse or goat anti-rabbit secondary antibody was added (Biorad), followed by an enhanced chemoluminescence (ECL) substrate reaction (Amersham). The substrate reaction was detected on Kodak X-Omat film. Filters that were used more than once with different antibodies were stripped according to the manufacturer's protocol, blocked and reprobed.

[10] = system: ERK-2 phosphorylation in SF767 cells; assay: Phosphorylated ERK-2 in whole cell lysates of SF767 cells; type: cell-based, human; conditions: in parallel to the tumor invasion assay, PD98059 or PYK2-KM
Method: as §8, §9

SF763 cell line = assay: Tumor invasion assay, SF763 cell line; type: cell-based, human; conditions: HRG, 16 h, retroviral infection with PYK2-KM
Method: as §5, §6, §7

C6 gliomas = assay: Tumor invasion assay, C6 gliomas; type: cell-based, rat; conditions: 5 μg/ml HRG, 16 h, PD98059 25 μM 30 min pretreatment or retroviral PYK2-KM
Method: as §5, §6, §7

Compound	Ionomycin-induced tyrosine phosphorylation of PYK2 ([1]; 5 μM IONO 5 min, PP1 5 μM 30 min pretreatment)	HRG-induced tyrosine phosphorylation of PYK2 [1]	Tyrosine phosphorylation of SHC [2]	Tyrosine phosphorylation of HER2 [3]	Amount of PYK2 that coprecipitates with HER3 [4]	HRG-stimulated ERK-2 activity [5]	Pl3-K activity upon HRG stimulation [6]	HRG-stimulated ERK-2 activity [7]	Basal ERK-2 activity [7]	HRG-stimulated tyrosine-phosphorylation of SHC [8]	Tumor invasion (invasive behaviour) (SF767 gliomas)	ERK-2 phosphorylation [9]	ERK-2 phosphorylation [10]	Tumor invasion (invasive behaviour) (SF763 cell line)	Tumor invasion (invasiveness) (C6 gliomas)
Cc1ccc(-c2nn(C(C)(C)C)c3ncnc(N)c23)cc1 [PP1]	dependent on c-src activity	independent of c-src	–	–	–	–	–	–	–	–	–	–	–	–	–
COc1cc(/C=C(\C#N)C(N)=O)cc(CSc2nc3ccccc3s2)c1O [AG825]	–	attenuated	completely inhibits	completely inhibits	decreases	diminished, but not fully abrogated	diminished	attenuated	not influenced	diminished, but not fully abrogated	–	–	–	–	–
PYK2-KM: dominant negative, kinase-inactive PYK2 mutant K457M, expressed by retroviral infection or Tet-off system	–	–	–	–	–	–	attenuates	abrogated	abrogated	–	strong inhibition	decrease	decrease	strong inhibition	comparable abrogation of the invasive phenotype
COc1cccc(-c2cc(=O)c3ccccc3o2)c1N [PD98059]	–	–	–	–	–	–	–	–	–	–	–	decrease	decrease	–	strongly attenuated
